From publication PMC4898484 (Molecular microbiology, 2015)

Target: Plasmodium falciparum phosphatidylserine decarboxylase (PfPSD) (Plasmodium falciparum, UniProt Q9GPP8)
Test: radiometric decarboxylase assay
Format: biochemical

Chain of Plasmodium falciparum phosphatidylserine decarboxylase (PfPSD) (Q9GPP8 41-315): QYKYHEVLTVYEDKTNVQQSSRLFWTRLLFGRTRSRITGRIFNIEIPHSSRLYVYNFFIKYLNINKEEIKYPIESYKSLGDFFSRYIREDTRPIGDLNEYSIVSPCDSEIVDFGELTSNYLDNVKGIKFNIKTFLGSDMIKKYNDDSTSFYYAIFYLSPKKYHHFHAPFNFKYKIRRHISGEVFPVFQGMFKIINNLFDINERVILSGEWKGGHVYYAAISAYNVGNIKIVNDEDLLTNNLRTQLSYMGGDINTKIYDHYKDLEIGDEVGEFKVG
Chain of Plasmodium falciparum phosphatidylserine decarboxylase (PfPSD) (Q9GPP8 316-362): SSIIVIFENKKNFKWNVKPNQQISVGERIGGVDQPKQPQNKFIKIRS

Compound `CCCc1ccc(Nc2ccnc3cc(Cl)ccc23)cc1` [7CPQA, 7-chloro-N-(4-propylphenyl)-4-quinolinamine] has an IC50 of 10 to 100 µM.
